Legend:
[1] = test system: human OVCAR-3 (NIH-OVCAR-3) ovarian adenocarcinoma; assay: OVCAR-3 ovarian carcinoma xenograft efficacy study; type: in vivo, SCID mice
Experimental: (§1) The human OVCAR-3 (NIH-OVCAR-3) ovarian adenocarcinoma utilized in the study is maintained in athymic nude mice by serial engraftment. The human SW620 colon adenocarcinoma utilized in the study is maintained in nude mice by serial engraftment.
Tumor weight may be estimated with the assumption that 1 mg is equivalent to 1 mm^3 of tumor volume. Tumor size, in mm^3, was calculated from: […]
Oral group receives BA p.o. (orally) twice daily from D1 p.m. until D68 a.m. (b.i.d. to end, i.e. twice daily dosing for the duration of the study). Alzet model osmotic pumps are implanted on Days 1, 15, and 29. The pumps are pre-warmed for 1 hour at 37° C., and then implanted subcutaneously (s.c.) in the left flanks of isofluoraneanesthetized mice. Each pump delivers a total dose of 25 mg/kg/week of BA over 14 days. BA is administrated intraperitoneally (i.p.) 15 mg/kg respectively twice weekly.
Each animal is euthanized when its neoplasm reached the predetermined endpoint size (1,000 mm^3).
where: T=median TTE for a treatment group, C=median TTE for control Group 1.

[2] = test system: advanced solid tumors; assay: Phase 1b study of BA in combination with chemotherapy, clinical response via RECIST; type: in vivo, human
Experimental: The protocol has been amended to evaluate BA in combination with chemotherapy in specific tumor types.
BA plus cytotoxic chemotherapy (CTX)
BA Dosing: • Twice weekly; i.v. infusion • Standard 3+3 design for BA dose escalation • Dose levels studied: 2.0, 2.8, 4.0, 5.6, 8.0, and up to 11.2 mg/kg
Clinical response via RECIST every 2 cycles
Subjects— 18 years old with a refractory, advanced solid tumor, ECOG PS of <=2, and adequate hematological, renal, and hepatic function
No restriction on number of prior chemotherapeutic regimens

[3] = Tissue distribution of BA; type: in vivo
[4] = Preclinical studies of BA with topotecan
[5] = Clinical safety experience with BA to date; type: in vivo, human
[6] = test system: PARP; assay: PARP activity in tissue samples from OVCAR-3 xenograft model; type: in vivo, SCID mice; details: after a single dose of BA; for effect on PARP activity in xenograft tissue samples: FIG. 2
Source text: as §1
Whole blood is collected into EDTA vacutainers and human PBMCs are obtained by BD Vacutainer™ CPT™ Cell Preparation kit according to the manufacturer's instructions (BD Vacutainer™, REF 362760). Tumor samples are collected in a sterile container and placed immediately on ice. Within 30 minutes, tumor samples are snap-frozen in liquid nitrogen and stored at −80° C. until homogenized for analysis. The specimen is defrosted on ice and the wet weight is documented. The tissue is homogenized using isotonic buffer [7 mmol/L HEPES, 26 mmol/L KCl, 0.1 mmol/L dextran, 0.4 mmol/L EGTA, 0.5 mmol/L MgCl2, 45 mmol/L sucrose (pH 7.8)]. The homogenate is kept on ice throughout the process, and homogenization is done in 10-second bursts to prevent undue warming of the sample. Unless assayed on the day of homogenization, samples are refrozen to −80° C. and stored at this temperature until analyzed.
Cell preparations are defrosted rapidly at room temperature and washed twice in ice-cold PBS. […] Maximally stimulated PARP activity is measured in replicate samples of 20,000 cells in a reaction mixture containing […] NAD+ and 10 mg/mL oligonucleotide in a reaction buffer of 100 mmol/L Tris-HCl, 120 mmol/L MgCl2 (pH 7.8) in a final volume of […] as described previously (24) at 26° C. in an oscillating water bath. […] Purified PAR standards are loaded onto each membrane ([…] monomer equivalent) to generate a standard curve and allow quantification. […] Chemiluminesence detected during a 5-minute exposure is measured using a Fuji LAS3000 UV Illuminator (Raytek, Sheffield, United Kingdom) and digitized using the imaging software (Fuji LAS Image version 1.1, Raytek). The acquired image is analyzed using Aida Image Analyzer (version 3.28.001), and results are expressed in LAU/mm^2. […]

[7] = test system: normal cells; assay: Toxic effects of BA in normal cells; type: cell-based
[8] = Stability of solutions and drug product; type: physicochemical

## NC(=O)c1ccc(I)c([N+](=O)[O-])c1 [BA, 4-iodo-3-nitrobenzamide]
[1]; OVCAR-3 xenograft in SCID mice
  tumor growth: significantly inhibits tumor growth
[1]; different routes of administration, FIG. 3
  survival compared with the untreated control: improves survival
[2]; BA plus cytotoxic chemotherapy
  subjects with stable disease for 2 cycles of treatment or more: Approximately 80%
[2]; after 4 cycles of BA in combination with topotecan, FIG. 4
  tumor response of a patient with advanced ovarian cancer: partial response
[2]; of 66 subjects, BA plus cytotoxic chemotherapy
  subjects demonstrating some clinical benefit: 53 subjects
[2]; one ovarian cancer patient, 4 cycles BA with topotecan, from 4.6 cm
  liver lesion (target lesion) size after treatment: 1.5 cm
[2]; one ovarian cancer patient, 4 cycles BA with topotecan, from >300
  CA 27-29 biomarker after treatment: < 200
[3]; in vivo
  blood-brain barrier crossing: known to cross the blood-brain barrier
[3]; including the brain and cerebrospinal fluid (CSF)
  tissue distribution: distributes rapidly and widely into tissues
[4]
  effect on antitumor activity of topotecan: potentiates the antitumor activity of topotecan
[5]
  safety and tolerability: safe and well-tolerated
  serious adverse events or grade 3 or 4 toxicities associated with BA: no serious adverse events or grade 3 or 4 toxicities
[6]
  effect on PARP activity in xenograft tissue samples: inhibitory effect
[6]; listed as 4-iodo-3-nitrobenzamide
  effect on PARP activity in xenograft tissue samples: inhibition of PARP
[6]; hours of observation
  duration of inhibitory effect on PARP activity: at least 8 hours
[7]
  toxic effects in normal cells: without exerting toxic effects in normal cells
[8]; ambient (room) temperature, diluted in 0.9% NS or D5W
  stability of BA dosing solution, time to administration after preparation: ≤ 8 h
[8]; at 25° C., 10 mg/mL in 25% hydroxypropylbetacyclodextrin/10 mM phosphate buffer, pH 7.4
  permitted storage of BA drug product: ≤ 24 h

— US20090123419A1, “TREATMENT OF UTERINE CANCER AND OVARIAN CANCER WITH A PARP INHIBITOR ALONE OR IN COMBINATION WITH ANTI-TUMOR AGENTS” (BiPar Sciences, priority 2007, published 2009)
